From ChEMBL document CHEMBL1201862, “PubChem BioAssay data set” (2004)
Activity calls are given as the source filed them.

Legend:
[1] = biological target: T1, Type-1 angiotensin II receptor (Homo sapiens, UniProt P30556); test: antagonism of angiotensin II type 1 receptor – cell-based, uHTS hits, selectivity assay for APJ receptor antagonist project, dose response (AID 463214); format: functional;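 note: antagonist potency against angiotensin II stimulated AT1 response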
T1 sequence (P30556 whole entry): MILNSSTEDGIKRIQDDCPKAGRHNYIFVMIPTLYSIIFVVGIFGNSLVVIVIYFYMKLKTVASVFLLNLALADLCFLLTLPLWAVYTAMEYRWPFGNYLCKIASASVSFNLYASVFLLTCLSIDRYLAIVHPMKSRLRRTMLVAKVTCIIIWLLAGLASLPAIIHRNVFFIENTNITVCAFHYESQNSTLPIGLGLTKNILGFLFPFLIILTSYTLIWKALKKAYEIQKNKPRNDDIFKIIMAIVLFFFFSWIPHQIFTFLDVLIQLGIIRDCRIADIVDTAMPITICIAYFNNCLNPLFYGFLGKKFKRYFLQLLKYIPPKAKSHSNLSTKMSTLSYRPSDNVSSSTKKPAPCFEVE

Beta-galactosidase = Beta-galactosidase (Escherichia coli, UniProt Q8VNN2); test: PubChem AID 485352; format: functional
[2] = biological target: T2, Corticotropin-releasing factor receptor 2/Corticotropin-releasing factor-binding protein (Homo sapiens, UniProt P24387+Q13324); test: activators of CRF receptor 2 with binding protein – uHTS hits, confirmation (AID 602473); format: functional; settings: read-out: EC50_Mean
T2 sequence (Q13324 whole entry): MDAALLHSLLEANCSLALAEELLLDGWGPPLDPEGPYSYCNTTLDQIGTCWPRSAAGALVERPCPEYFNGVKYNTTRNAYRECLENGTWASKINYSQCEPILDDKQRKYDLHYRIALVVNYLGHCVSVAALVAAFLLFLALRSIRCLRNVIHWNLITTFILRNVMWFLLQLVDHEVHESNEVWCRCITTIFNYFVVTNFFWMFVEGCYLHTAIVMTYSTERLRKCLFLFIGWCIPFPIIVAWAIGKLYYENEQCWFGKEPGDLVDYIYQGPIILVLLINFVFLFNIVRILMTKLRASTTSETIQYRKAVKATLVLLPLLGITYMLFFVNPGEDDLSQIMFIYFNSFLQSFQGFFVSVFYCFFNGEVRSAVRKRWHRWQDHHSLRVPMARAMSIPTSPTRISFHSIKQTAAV
T2 sequence (P24387 whole entry): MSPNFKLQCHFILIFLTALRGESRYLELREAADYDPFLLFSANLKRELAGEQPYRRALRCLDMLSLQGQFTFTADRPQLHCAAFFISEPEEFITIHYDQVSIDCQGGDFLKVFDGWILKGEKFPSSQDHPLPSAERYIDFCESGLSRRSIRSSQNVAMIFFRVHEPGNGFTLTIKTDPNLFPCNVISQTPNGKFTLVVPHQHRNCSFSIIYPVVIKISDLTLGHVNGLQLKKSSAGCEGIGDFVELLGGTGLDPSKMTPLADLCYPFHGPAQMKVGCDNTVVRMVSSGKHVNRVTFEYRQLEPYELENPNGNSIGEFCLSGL

[3] = biological target: T2, Corticotropin-releasing factor receptor 2/Corticotropin-releasing factor-binding protein; test: Dose Response confirmation of uHTS hits for small molecule antagonists of the CRF-binding protein and CRF-R2 receptor complex.; format: functional; settings: read-out: IC50_Mean
HEK293 = test: EBV LMP1 TES2 canonical NF-kB signalling blockers – cell-based, HEK293, luciferase, cherry-pick, dose response (AID 588343); format: functional; settings: Homo sapiens
[4] = biological target: Peroxisome proliferator-activated receptor gamma/Nuclear receptor coactivator 2 (Homo sapiens, UniProt P37231); test: (§1) TR-FRET dose response biochemical High Throughput Screening assay for agonists of the steroid receptor coactivator 2 (SRC-2) recruitment by the peroxisome proliferator-activated receptor gamma (PPAR gamma): non-selective agonists. [Related pubchem assays: 1297, 1032 ]; format: functional
Large T antigen = Large T antigen (Simian virus 40, UniProt P03070); format: functional, Betapolyomavirus macacae;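 note: Confirmatory-stage PubChem screen for compounds that inhibit SV40 T antigen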
[5] = biological target: Glucose-6-phosphate 1-dehydrogenase (Homo sapiens, UniProt P11413); test: inhibition of Homo sapiens G6PD, dose series – biochemical, fluorescence, selectivity assay for P. falciparum G6PD inhibitor project, dose response (AID 504792); format: functional
[6] = reduction of Shn3 3'UTR-driven luciferase in osteoblasts – cell-based, Clone20 osteoblasts, firefly luciferase, cherry-picked, dose response (AID 624132); format: functional;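 note: firefly luciferase luminescence from reporter carrying the Shn3 3'UTR in osteoblasts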
[7] = biological target: Peroxisome proliferator-activated receptor gamma/Nuclear receptor coactivator 1 (Homo sapiens, UniProt P37231); test: as §1, with “1 (SRC-1)” for “2 (SRC-2)”, “assays (depositor defined):AID1300, AID1808, AID504735, AID631]” for “assays: 1297, 1032 ]”; format: protein assay
[8] = loss of viability in HepG2 cells – cell-based, CellTiter-Glo, cherry-picked, cytotoxicity control for Shn3 inhibitor project, dose response (AID 624134); format: functional
[9] = biological target: Peroxisome proliferator-activated receptor gamma/Nuclear receptor coactivator 3 (Homo sapiens, UniProt P37231); test: as §1, with “3 (SRC-3)” for “2 (SRC-2)”, “1301 (Confirmation screen.), 1048 (Primary screen.)]” for “1297, 1032 ]”; format: functional
[10] = biological target: T3, Histone-lysine N-methyltransferase NSD2 (Homo sapiens, UniProt O96028); format: biochemical
T3 sequence (O96028 whole entry): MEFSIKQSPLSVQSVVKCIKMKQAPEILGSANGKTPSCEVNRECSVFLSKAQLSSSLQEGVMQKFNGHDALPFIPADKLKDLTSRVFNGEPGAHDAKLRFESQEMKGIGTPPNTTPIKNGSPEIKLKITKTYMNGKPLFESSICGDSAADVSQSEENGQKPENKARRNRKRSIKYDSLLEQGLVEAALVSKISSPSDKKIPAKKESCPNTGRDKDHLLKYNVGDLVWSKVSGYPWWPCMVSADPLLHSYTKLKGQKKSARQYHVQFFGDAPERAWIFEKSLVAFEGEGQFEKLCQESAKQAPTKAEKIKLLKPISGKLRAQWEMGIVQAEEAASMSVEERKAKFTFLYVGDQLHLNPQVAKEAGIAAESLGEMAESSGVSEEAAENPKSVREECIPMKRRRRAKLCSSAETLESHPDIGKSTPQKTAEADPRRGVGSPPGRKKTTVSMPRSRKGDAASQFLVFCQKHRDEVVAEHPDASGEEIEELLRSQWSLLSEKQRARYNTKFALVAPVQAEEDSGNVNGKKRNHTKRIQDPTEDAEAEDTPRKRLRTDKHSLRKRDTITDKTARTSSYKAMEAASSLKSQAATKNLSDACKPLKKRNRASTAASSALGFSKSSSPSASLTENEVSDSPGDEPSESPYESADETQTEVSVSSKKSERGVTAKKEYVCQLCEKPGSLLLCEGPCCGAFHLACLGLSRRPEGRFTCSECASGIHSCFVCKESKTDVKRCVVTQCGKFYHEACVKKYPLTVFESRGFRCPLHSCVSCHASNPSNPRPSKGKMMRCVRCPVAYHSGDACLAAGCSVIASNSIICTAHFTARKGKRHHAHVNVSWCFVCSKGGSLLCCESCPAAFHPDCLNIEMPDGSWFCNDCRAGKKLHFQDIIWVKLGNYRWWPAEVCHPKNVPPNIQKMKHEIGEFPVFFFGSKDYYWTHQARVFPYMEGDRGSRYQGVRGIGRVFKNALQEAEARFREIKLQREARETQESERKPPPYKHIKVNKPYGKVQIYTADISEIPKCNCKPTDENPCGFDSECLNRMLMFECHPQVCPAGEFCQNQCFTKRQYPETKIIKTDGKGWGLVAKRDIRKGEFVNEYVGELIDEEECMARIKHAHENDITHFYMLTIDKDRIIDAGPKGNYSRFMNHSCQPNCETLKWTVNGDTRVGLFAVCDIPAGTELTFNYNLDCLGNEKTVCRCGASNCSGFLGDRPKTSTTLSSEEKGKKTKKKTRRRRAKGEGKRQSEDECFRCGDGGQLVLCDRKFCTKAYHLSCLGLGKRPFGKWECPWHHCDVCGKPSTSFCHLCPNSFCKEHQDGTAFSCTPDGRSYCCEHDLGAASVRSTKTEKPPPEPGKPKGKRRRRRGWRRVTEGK

[11] = viability loss in HeLa cells – cytotoxicity control for MgcRacGAP inhibitor project, dose response (AID 624300); format: functional
[12] = biological target: Dual specificity tyrosine-phosphorylation-regulated kinase 1A (Rattus norvegicus, UniProt Q63470); format: biochemical, Homo sapiens
[13] = biological target: T4, Rac GTPase-activating protein 1 (Homo sapiens, UniProt Q9H0H5); test: blockers of MgcRacGAP-driven Rac1 GTP hydrolysis – biochemical, ADP Hunter fluorescence, primary and confirmatory, confirmation (AID 624330); format: functional
T4 sequence (Q9H0H5 whole entry): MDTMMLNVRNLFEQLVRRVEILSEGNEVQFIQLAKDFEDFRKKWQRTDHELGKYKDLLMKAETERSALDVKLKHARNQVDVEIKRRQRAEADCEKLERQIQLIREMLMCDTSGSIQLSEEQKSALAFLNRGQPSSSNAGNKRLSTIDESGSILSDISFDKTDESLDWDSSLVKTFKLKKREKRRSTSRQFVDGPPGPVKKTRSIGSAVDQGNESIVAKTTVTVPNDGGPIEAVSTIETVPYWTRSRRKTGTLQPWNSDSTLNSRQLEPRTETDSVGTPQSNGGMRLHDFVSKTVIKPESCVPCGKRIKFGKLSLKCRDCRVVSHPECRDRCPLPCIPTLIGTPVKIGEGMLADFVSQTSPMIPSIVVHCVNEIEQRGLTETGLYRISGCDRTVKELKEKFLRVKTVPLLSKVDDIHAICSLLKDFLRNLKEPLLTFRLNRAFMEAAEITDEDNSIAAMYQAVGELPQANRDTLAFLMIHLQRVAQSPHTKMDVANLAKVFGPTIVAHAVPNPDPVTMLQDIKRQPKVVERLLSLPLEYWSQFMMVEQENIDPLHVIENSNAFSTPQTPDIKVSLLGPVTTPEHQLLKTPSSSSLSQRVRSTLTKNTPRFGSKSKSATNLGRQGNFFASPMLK

Streptokinase A = biological target: T5, Streptokinase A (Streptococcus pyogenes serotype M1, UniProt P10520); test: viability-normalized secreted streptokinase activity reduction – plasminogen activation absorbance, OD405, dose response (AID 1914); format: functional, Streptococcus pyogenes M1 GAS;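 note: secreted streptokinase activity via plasminogen activation per viability signal from cell pellet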
T5 sequence (P10520 whole entry): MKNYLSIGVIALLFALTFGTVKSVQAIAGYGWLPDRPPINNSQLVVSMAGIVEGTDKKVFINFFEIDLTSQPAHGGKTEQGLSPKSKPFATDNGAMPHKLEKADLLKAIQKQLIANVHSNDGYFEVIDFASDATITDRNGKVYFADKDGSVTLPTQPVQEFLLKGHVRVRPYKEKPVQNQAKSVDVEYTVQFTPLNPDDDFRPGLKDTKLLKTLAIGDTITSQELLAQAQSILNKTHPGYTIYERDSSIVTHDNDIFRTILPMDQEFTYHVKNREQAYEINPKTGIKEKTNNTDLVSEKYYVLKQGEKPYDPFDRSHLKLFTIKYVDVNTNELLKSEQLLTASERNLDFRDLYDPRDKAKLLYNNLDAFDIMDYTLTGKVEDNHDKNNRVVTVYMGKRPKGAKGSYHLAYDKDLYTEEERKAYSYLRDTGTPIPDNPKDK

Streptococcus = test: GAS UMAA2166 growth inhibition – luminescence, BacTiterGlo, counter-screen for streptokinase expression inhibitor project, dose response (AID 1915); format: functional, organism-based;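 note: potency for reduction of bacterial viability or growth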
[14] = test system: Streptococcus sp. 'group A'; test: Streptococcus pyogenes SK(-)GAS viability under kanamycin – luminescence, BacTiterGlo, confirmation, counter-screen for streptokinase expression inhibitor project, dose response (AID 1900); format: functional, organism-based
[15] = biological target: T6, Heat shock factor protein 1 (Mus musculus, UniProt P38532); test: decrease of HSF1-responsive luciferase luminescence – cell-based, NIH3T3, dose retest, confirmation (AID 2382); format: functional;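 note: NIH3T3 fibroblasts with HSF1-driven luciferase reporter stressed by proteasome inhibitor MG132; luminescence from HSF1-driven luciferase expression after 8 hours of MG132 stress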
T6 sequence (P38532 whole entry): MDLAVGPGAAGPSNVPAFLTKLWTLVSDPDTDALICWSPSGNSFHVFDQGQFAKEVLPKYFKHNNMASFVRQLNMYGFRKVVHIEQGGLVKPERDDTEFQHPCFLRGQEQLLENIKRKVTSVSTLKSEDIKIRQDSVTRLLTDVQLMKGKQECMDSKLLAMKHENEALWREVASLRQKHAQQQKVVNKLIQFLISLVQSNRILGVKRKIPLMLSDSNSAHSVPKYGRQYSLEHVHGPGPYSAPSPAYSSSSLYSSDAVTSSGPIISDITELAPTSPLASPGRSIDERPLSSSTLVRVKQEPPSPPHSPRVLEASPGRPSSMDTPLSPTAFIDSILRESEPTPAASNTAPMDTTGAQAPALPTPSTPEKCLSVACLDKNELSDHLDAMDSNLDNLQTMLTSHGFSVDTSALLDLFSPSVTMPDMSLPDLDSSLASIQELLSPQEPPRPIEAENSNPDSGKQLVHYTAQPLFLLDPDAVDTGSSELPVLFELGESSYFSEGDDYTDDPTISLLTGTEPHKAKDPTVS

Peroxisome proliferator-activated receptor gamma/Nuclear receptor coactivator 1, sequence (P37231 whole entry): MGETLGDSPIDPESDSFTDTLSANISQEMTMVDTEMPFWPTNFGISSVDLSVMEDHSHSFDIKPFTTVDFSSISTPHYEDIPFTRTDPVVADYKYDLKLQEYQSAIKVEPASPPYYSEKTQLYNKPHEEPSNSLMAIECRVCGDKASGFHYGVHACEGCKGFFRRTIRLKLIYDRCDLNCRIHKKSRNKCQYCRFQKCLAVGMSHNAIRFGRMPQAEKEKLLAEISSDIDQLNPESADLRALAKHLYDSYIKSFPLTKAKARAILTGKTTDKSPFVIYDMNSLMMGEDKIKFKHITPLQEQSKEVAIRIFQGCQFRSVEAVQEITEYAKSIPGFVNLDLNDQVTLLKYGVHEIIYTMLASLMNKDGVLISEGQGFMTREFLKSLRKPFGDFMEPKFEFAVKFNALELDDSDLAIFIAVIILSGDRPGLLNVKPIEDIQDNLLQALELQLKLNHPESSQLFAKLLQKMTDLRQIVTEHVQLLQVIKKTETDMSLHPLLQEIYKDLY
Peroxisome proliferator-activated receptor gamma/Nuclear receptor coactivator 1, sequence (Q15788 whole entry, further chain): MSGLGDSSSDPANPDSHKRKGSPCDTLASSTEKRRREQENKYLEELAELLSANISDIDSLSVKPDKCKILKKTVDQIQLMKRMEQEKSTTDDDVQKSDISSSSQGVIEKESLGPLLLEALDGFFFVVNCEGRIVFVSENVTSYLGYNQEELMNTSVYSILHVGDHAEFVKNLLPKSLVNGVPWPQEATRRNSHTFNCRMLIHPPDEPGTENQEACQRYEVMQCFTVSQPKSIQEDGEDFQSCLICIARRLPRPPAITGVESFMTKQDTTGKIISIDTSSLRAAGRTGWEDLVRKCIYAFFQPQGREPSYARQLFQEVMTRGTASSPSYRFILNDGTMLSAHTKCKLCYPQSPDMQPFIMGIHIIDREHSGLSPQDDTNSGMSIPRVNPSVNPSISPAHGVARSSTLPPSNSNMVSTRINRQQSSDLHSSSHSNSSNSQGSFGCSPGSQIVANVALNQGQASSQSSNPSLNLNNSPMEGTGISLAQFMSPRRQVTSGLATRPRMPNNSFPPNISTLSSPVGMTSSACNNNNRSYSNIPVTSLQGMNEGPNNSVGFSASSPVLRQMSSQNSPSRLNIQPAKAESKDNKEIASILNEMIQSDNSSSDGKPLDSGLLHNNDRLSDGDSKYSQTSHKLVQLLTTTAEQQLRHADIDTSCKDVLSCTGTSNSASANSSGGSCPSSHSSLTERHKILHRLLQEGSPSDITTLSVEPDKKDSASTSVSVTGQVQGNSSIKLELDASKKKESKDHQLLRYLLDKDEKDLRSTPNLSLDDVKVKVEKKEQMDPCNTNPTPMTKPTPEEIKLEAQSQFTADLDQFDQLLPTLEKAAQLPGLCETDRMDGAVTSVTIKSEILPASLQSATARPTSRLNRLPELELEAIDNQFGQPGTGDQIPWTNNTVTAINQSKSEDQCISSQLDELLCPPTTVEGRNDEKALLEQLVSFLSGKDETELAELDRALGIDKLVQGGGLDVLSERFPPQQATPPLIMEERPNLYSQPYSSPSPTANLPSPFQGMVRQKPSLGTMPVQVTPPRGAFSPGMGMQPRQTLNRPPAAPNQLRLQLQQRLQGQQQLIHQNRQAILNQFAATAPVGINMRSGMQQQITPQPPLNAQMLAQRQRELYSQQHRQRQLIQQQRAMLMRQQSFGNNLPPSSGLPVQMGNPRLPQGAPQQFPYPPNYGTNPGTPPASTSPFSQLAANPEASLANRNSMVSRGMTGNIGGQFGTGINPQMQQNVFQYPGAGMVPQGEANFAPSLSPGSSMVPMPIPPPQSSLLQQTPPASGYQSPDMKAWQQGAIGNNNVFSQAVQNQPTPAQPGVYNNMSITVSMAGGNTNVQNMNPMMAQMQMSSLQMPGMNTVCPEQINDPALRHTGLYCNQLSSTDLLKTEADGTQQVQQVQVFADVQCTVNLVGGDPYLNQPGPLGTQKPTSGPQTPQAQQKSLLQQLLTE
Peroxisome proliferator-activated receptor gamma/Nuclear receptor coactivator 2, sequence (P37231 whole entry): as the sequence (P37231 whole entry) above
Peroxisome proliferator-activated receptor gamma/Nuclear receptor coactivator 2, sequence (Q15596 whole entry, further chain): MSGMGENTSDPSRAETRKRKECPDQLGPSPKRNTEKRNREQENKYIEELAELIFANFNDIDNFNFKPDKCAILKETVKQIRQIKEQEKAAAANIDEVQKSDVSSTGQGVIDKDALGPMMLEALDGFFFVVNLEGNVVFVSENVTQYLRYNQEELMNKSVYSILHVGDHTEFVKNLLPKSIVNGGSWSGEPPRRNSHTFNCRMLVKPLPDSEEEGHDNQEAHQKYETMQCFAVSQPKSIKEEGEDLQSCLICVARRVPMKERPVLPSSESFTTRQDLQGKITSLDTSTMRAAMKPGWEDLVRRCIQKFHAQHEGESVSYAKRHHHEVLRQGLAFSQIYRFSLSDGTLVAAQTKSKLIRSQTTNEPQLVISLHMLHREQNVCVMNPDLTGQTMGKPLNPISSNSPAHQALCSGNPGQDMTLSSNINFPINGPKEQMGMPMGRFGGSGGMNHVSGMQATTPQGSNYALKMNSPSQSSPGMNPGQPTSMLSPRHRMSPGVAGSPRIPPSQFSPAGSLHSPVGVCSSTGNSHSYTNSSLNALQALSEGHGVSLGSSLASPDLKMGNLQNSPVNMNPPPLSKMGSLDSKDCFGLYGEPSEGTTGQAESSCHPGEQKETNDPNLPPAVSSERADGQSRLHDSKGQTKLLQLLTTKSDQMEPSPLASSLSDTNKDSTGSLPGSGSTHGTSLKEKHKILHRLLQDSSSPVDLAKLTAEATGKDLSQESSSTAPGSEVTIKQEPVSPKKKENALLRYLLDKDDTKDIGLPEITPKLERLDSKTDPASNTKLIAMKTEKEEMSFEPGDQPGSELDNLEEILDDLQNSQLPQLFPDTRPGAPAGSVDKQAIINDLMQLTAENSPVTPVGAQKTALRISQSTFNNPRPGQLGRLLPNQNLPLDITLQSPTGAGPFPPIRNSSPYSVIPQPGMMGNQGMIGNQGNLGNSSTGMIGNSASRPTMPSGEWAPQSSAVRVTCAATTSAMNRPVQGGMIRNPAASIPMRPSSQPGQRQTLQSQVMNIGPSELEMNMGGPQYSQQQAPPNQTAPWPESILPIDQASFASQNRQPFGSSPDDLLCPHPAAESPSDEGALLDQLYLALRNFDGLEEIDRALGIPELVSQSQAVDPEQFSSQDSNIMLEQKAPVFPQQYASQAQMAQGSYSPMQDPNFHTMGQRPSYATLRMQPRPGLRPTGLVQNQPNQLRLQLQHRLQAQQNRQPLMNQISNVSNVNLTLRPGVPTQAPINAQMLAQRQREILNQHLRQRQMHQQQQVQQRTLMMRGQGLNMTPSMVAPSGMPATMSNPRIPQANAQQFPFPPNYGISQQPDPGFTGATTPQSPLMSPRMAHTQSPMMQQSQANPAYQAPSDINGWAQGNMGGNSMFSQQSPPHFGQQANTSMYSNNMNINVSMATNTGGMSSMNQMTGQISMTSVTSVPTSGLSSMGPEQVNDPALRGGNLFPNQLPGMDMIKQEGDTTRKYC
Glucose-6-phosphate 1-dehydrogenase, sequence (P11413 whole entry): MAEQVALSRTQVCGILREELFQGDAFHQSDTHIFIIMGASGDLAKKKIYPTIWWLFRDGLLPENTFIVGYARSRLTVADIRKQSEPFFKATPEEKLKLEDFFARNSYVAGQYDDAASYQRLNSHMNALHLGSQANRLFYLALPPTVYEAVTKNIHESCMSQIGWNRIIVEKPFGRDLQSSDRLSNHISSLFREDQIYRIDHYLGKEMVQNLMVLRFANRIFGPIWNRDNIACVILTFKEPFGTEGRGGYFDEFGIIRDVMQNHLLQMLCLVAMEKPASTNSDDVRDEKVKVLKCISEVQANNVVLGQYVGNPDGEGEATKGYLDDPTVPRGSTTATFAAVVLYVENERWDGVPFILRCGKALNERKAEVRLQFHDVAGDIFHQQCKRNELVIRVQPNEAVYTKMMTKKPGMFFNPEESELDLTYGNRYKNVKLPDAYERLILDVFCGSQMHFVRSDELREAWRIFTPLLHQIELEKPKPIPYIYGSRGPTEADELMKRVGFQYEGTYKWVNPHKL

Structure (SMILES): COc1ccc(C(=O)CNc2ccccc2CO)cc1
- IC50 [1]: 26.1 µM (not active)
- EC50 (Beta-galactosidase): > 40 µM (inactive)

Structure (SMILES): NC(Cc1ccc(O)cc1)C(=O)NN=Cc1ccc(N(CCCl)CCCl)cc1 (stereo unspecified)
- EC50 [2]: > 53 µM (inactive)
- IC50 [3]: > 47.1 µM (inactive)
- AC50 (HEK293): 31.4 µM (active)

Structure (SMILES): CC1=NOC(=O)/C1=C\c1ccc(-c2ccccc2Br)o1
- EC50 [4]: 5.02 µM (active)
- IC50 (Large T antigen): 16.4 µM (active)
- IC50 [5]: > 80 µM (inactive)
- AC50 [6]: 6.48 µM (active)
- EC50 [7]: 9.24 µM (active)
- AC50 [8]: > 70 µM (inactive)
- EC50 [9]: > 79.4 µM (not active)
- AC50 [10]: > 20 µM (inactive)

Structure (SMILES): Cc1ccnc(Nc2nc(-c3ccc(O)c(O)c3)cs2)c1
- CC50 [11]: 69.5 µM (active)
- AC50 [12]: 10.1 µM (active)
- IC50 [13]: 41.3 µM (active)

Structure (SMILES): CCCCCCCCOC(=O)/C=C/c1c(C)nc(O)nc1O
- EC50 (Streptokinase A): 2.38 µM (active)
- EC50 (Streptococcus): > 150 µM (not active)
- AC50 (HEK293): 2.59 µM (active)
- EC50 [14]: 1.76 µM (active)

Structure (SMILES): COCCNC(=O)c1ccc2c(c1)nc(C)n2-c1cccc(F)c1
- AC50 [12]: 98.8 µM (active)

Structure (SMILES): Cc1[nH][nH]c(=O)c1N=Nc1ccccc1Cl
- AC50 [12]: 28.9 µM (active)

Structure (SMILES): Cn1c(=O)cc(SCC(=O)N2CCN(C(=O)c3ccco3)CC2)c2ccccc21
- EC50 [15]: > 195 µM (not active)
- EC50 [4]: > 79.4 µM (not active)
- EC50 [7]: > 79.4 µM (inactive)
- EC50 [9]: > 79.4 µM (not active)
